Experimental findings from ChEMBL document CHEMBL1255551, “Synthesis and biological evaluation of C-2 halogenated analogs of salvinorin A” (Bioorg Med Chem Lett, 2010) are described below.

Calls of active or inactive are those of the source. No cut-off for these calls is given here.

The target in assay [1] is T1, Kappa-type opioid receptor (Homo sapiens, UniProt P41145). The assay is described as follows: Displacement of [3H]diprenorphine from human kappa opioid receptor expressed in CHO cells at 3 uM. It counts as cell-based.
Assay [2] deals with T1, Kappa-type opioid receptor. The assay is described as follows: Displacement of [3H]diprenorphine from human kappa opioid receptor expressed in CHO cells. It counts as cell-based. A general note: Displacement assays read how much labelled ligand stays bound in the presence of the test substance.
For assay [3], the target named is Mu-type opioid receptor (Rattus norvegicus) (UniProt P33535). The assay is described as follows: Displacement of [3H]diprenorphine from rat mu opioid receptor expressed in CHO cells at 3 uM. The assay is classed as cell-based.
The target of assay [4] is Delta-type opioid receptor (Mus musculus) (UniProt P32300). Kind of assay: Displacement of [3H]diprenorphine from mouse FLAG-tagged delta opioid receptor expressed in CHO cells at 3 uM. The assay is classed as cell-based.
Assay [5] has as its target T1, Kappa-type opioid receptor. Kind of assay: Agonist activity at human kappa opioid receptor expressed in CHO cells assessed as increase of [35S]GTPgammaS binding. The assay is classed as functional, cell-based. On the technique in general: GTPγS is a poorly hydrolysed GTP analogue; its binding reports G protein activation.
In assay [6] the target is T1, Kappa-type opioid receptor. Kind of assay: Agonist activity at human kappa opioid receptor expressed in CHO cells assessed as increase of [35S]GTPgammaS binding at 240 nM relative to U50488H. The assay is classed as functional, cell-based.

Chain of Mu-type opioid receptor (Rattus norvegicus) (P33535 whole entry): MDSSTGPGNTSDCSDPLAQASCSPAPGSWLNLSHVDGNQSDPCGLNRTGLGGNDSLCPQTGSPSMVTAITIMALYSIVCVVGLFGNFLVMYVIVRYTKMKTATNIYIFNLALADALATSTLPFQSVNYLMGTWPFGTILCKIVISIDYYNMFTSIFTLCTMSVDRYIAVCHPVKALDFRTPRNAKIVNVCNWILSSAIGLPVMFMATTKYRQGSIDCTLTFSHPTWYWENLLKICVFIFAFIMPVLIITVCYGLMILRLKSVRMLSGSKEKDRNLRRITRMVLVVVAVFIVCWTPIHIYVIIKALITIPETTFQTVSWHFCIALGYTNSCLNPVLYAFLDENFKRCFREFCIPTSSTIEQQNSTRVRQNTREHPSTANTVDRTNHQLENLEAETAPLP
Chain of Delta-type opioid receptor (Mus musculus) (P32300 whole entry): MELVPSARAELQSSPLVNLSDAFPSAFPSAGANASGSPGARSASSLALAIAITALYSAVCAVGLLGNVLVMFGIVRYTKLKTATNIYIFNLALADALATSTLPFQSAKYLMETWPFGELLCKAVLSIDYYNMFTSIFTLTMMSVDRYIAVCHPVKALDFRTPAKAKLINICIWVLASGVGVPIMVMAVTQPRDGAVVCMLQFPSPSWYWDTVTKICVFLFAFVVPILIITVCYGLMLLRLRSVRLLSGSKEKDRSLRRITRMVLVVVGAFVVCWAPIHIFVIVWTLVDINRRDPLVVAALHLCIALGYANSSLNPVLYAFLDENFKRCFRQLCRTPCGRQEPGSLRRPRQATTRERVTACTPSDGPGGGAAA
T1 sequence (P41145 whole entry): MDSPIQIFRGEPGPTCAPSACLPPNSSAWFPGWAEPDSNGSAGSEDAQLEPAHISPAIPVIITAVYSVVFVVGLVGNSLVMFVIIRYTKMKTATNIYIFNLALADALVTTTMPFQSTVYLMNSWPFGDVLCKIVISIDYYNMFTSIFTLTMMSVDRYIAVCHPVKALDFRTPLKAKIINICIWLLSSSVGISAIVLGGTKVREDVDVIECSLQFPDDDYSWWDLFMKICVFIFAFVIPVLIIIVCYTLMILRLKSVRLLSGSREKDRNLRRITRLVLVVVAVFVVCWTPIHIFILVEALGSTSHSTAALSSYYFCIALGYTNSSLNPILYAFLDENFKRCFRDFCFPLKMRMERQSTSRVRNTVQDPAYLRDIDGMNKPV

The inhibition is the share of the control response that was lost under treatment. The term Ki denotes the equilibrium dissociation constant of an inhibitor or competing ligand from its target. Lower therefore signals a stronger hold on the target. Broadly, the EC50 is the concentration needed to bring the measured effect to its halfway point. A word on the Emax: it is the maximal effect, on the per cent scale that the assay sets. As to `COC(=O)[C@@H]1CC(C(=O)O)C(=O)[C@H]2[C@@]1(C)CC[C@H]1C(=O)O[C@H](c3ccoc3)C[C@]21C` (stereo partly drawn), the inhibition in assay [1] is over 50%. The Ki in assay [2] was 24.3 nM. Also, the result in assay [3] and in assay [4] was inactive. Further, the EC50 in assay [5] was 83.3 nM. The maximal response (Emax) in assay [6] is 103%.
`COC(=O)[C@@H]1C[C@H](Br)C(=O)[C@H]2[C@@]1(C)CC[C@H]1C(=O)O[C@H](c3ccoc3)C[C@]21C`: in assay [1], the inhibition is over 50%. This compound also displayed an inhibition constant Ki in assay [2] of 422 nM. Also, the outcome in assay [3] and in assay [4] was inactive. Besides, the EC50 in assay [5] was 1970 nM. Also, the maximum response (Emax) in assay [6] was found to be 87%.
`COC(=O)[C@@H]1C[C@@H](F)C(=O)[C@H]2[C@@]1(C)CC[C@H]1C(=O)O[C@H](c3ccoc3)C[C@]21C` had an inhibition in assay [1] of over 50%. Also, in assay [2], affinity was put at a Ki of 197 nM. For the same compound, the result in assay [3] and in assay [4] was inactive. In addition, the concentration for a half-maximal effect (EC50) in assay [5] is 539 nM. For the same compound, in assay [6], the Emax was determined as 77%.
Consider `COC(=O)[C@@H]1C[C@@H](Br)C(=O)[C@H]2[C@@]1(C)CC[C@H]1C(=O)O[C@H](c3ccoc3)C[C@]21C`, for which the inhibition in assay [1] was over 50%. The compound also showed a Ki in assay [2] of 42.3 nM. Moreover, the outcome in assay [3] and in assay [4] was inactive. The concentration for a half-maximal effect (EC50) in assay [5] amounted to 282 nM. Further, in assay [6], the Emax stood at 90%.
In turn, `COC(=O)[C@@H]1C[C@H](OC(C)=O)C(=O)[C@H]2[C@@]1(C)CC[C@H]1C(=O)O[C@H](c3ccoc3)C[C@]21C` displayed an inhibition in assay [1] of over 50%. The result in assay [3] and in assay [4] was inactive.
`COC(=O)[C@@H]1C[C@@H](I)C(=O)[C@H]2[C@@]1(C)CC[C@H]1C(=O)O[C@H](c3ccoc3)C[C@]21C` came in with an inhibition in assay [1] of over 50%. For the same compound, the inhibition constant Ki in assay [2] was 245 nM. The outcome in assay [3] and in assay [4] was inactive. Moreover, the EC50 in assay [5] is 239 nM. Moreover, in assay [6], the maximal response (Emax) was found to be 46%.
As for `COC(=O)[C@@H]1C[C@H](Cl)C(=O)[C@H]2[C@@]1(C)CC[C@H]1C(=O)O[C@H](c3ccoc3)C[C@]21C`, in assay [1], the inhibition was over 50%. Moreover, the Ki in assay [2] is over 1000 nM. For the same compound, the result in assay [3] and in assay [4] was inactive.
In the case of `COC(=O)[C@@H]1CCC(=O)[C@H]2[C@@]1(C)CC[C@H]1C(=O)O[C@H](c3ccoc3)C[C@]21C`, the inhibition in assay [1] is over 50%. In addition, in assay [2], the inhibition constant (Ki) was found to be 51.6 nM. In addition, the result in assay [3] and in assay [4] was inactive. Moreover, in assay [5], the 50% effective concentration (EC50) worked out at 266 nM. The Emax in assay [6] came out at 124%.
`COC(=O)[C@@H]1C[C@H](F)C(=O)[C@H]2[C@@]1(C)CC[C@H]1C(=O)O[C@H](c3ccoc3)C[C@]21C`: the inhibition in assay [1] is over 50%. The same compound gave a Ki in assay [2] of over 1000 nM. Also, the outcome in assay [3] and in assay [4] was inactive.
As for `COC(=O)[C@@H]1C[C@H](I)C(=O)[C@H]2[C@@]1(C)CC[C@H]1C(=O)O[C@H](c3ccoc3)C[C@]21C`, the inhibition in assay [1] was over 50%. In assay [2], this compound yielded a Ki of 198 nM. Further, the outcome in assay [3] and in assay [4] was inactive. Moreover, the half-maximal effective concentration (EC50) in assay [5] was determined as 648 nM. The Emax in assay [6] turned out to be 92%.
In the case of `COC(=O)[C@@H]1C[C@@H](Cl)C(=O)[C@H]2[C@@]1(C)CC[C@H]1C(=O)O[C@H](c3ccoc3)C[C@]21C`, the inhibition in assay [1] was over 50%. In assay [2], this compound had a Ki of 167 nM. Moreover, the result in assay [3] and in assay [4] was inactive. Further, the EC50 in assay [5] amounted to 673 nM. Besides, the Emax in assay [6] is 112%.
Regarding `COC(=O)[C@@H]1C[C@@H](Br)C2=C3[C@@](C)(C[C@H](c4ccoc4)O2)C(C(=O)O)CC[C@]31C` (stereo partly drawn), the inhibition in assay [1] was over 50%. Moreover, the inhibition constant (Ki) in assay [2] was over 1000 nM. For the same compound, the outcome in assay [3] and in assay [4] was inactive.
